Laboratory results taken from patent US20210371351A1, “MIXTURES COMPRISING AT LEAST TWO DIFFERENT NITRIFICATION INHIBITORS SELECTED FROM 2-(3,4-DIMETHYL-1H-PYRAZOL-1-YL)SUCCINIC ACID (DMPSA), 3,4-DIMETHYL PYRAZOLIUM GLYCOLATE (DMPG) AND OTHER COMPOUNDS” (BASF SE, priority 2017, published 2021).

Tests used:
nitrification [1] = test: Example 4: soil column trial (soil Limburgerhof), DMPSA and DMPP, other weight ratios; incubation 10 d at 15° C.; % inhibition of NO3-N formation (Böhland), Colby; details: 10 days of incubation at 15° C.
Description: The effect on NH4+ retention and NH4+ to NO3− ratios in the soil after fertilization of ammonium sulfate with the addition of DMPP, DMPSA or a combination of DMPP and DMPSA was investigated in column trials simulating climatic conditions of spring time in central Europe. Soil Limburgerhof (pH(CaCl2) 6.8, texture: 73% sand; 24% silt, 3% clay) was filled dry into a glass column with an inner width of 4 cm. At the bottom 0.4 g cotton wool was placed above which a frit (Co. Robu, pore size 1) was placed above which 100 g of 2 mm sieved soil Limburgerhof was layered. The soil height in the column was about 7 cm. Before fertilization the soil was brought to about 60% of its water holding capacity (WHC) be adding 14.4 mL of deionized water. Per column 10 mg NH4—N as ammonium sulfate was fertilized or not (control) together or not with 0.005% or 0.015% DMPP (DMPP obtained from BASF SE), 0.45% DMPSA (DMPSA used as free acid obtained from BASF SE) and […] or 0.015% DMPP plus 0.45% DMPSA (% of nitrification inhibitor w/w of NH4-N). Every treatment was replicated three times. After fertilization, 50 mL demineralized water was carefully and slowly placed on top of each column which equals about 31 mm precipitation. After 24 h the eluate was collected and by sucking off the soil to bring it back to about 60% of its WHC. All handlings including soil preparation, fertilization and the temperature of the water for both wetting the soil and the artificial precipitation up to the collection of the eluate 24 h after fertilization was performed at 5° C.
Thereafter, the columns were incubated for 10 d or 20 d at constantly 15° C. in an incubator. After 7 d and 14 d water was added by weight where needed to bring the soils uniformly to 60% WHC. After 10 d or 20 d the soil was removed from the columns and extracted with 1% (w/w) K2SO4 solution by shaking for 2 h at room temperature. The filtrated extract was then analyzed for NH4+ and NO3− colorimetrical by an autoanalyzer.
(§1) To calculate the inhibition of nitrate formation by the nitrification inhibitors during the incubation, the above-mentioned Böhland equation was used. To examine synergistic effects of the combination of DMPP+DMPSA the formula by Colby (Colby, S.R., “Calculating synergistic and antagonistic responses of herbicide Combinations”, Weeds, 15, pp. 20-22, 1967) was used. To determine background levels of NH4+ to NO3−, every treatment was also extracted immediately after fertilization and after leaching prior to the further incubation at 15° C. for 10 d or 20 d.

nitrification [2] = test: Example 3: soil column trial (soil Limburgerhof) with ammonium sulfate, DMPP, DMPSA or DMPP+DMPSA; leaching at 5° C., incubation 10 d or 20 d at 15° C.; NH4-N/NO3-N, % inhibition of NO3-N formation (Böhland), Colby; details: 0.05% DMPP, 0.45% DMPSA
Description: The effect on NH4^+ retention and NH4^+ to NO3^− ratios in the soil after fertilization of ammonium sulfate with the addition of DMPP, DMPSA or a combination of DMPP and DMPSA was investigated in column trials simulating climatic conditions of spring time in central Europe. Soil Limburgerhof (pH(CaCl2) 6.8, texture: 73% sand; 24% silt, 3% clay) was filled dry into a glass column with an inner width of 4 cm. At the bottom 0.4 g cotton wool was placed above which a frit (Co. Robu, pore size 1) was placed above which 100 g of 2 mm sieved soil Limburgerhof was layered. The soil height in the column was about 7 cm. Before fertilization the soil was brought to about 60% of its water holding capacity (WHC) be adding 14.4 mL of deionized water. Per column 10 mg NH4—N as ammonium sulfate was fertilized or not (control) together or not with 0.05% DMPP (DMPP obtained from BASF SE), 0.45% DMPSA (DMPSA used as free acid obtained from BASF SE) and 0.05% DMPP plus 0.45% DMPSA (% of nitrification inhibitor w/w of NH4—N). Every treatment was replicated three times.
After fertilization, 50 mL demineralized water was carefully and slowly placed on top of each column which equals about 31 mm precipitation. After 24 h the eluate was collected and by sucking off the soil to bring it back to about 60% of its WHC. All handlings including soil preparation, fertilization and the temperature of the water for both wetting the soil and the artificial precipitation up to the collection of the eluate 24 h after fertilization was performed at 5° C.
Thereafter, the columns were incubated for 10 d or 20 d at constantly 15° C. in an incubator. After 7 d and 14 d, water was added by weight where needed to bring the soils uniformly to 60% WHC. After 10 d or 20 d, the soil was removed from the columns and extracted with 1% (w/w) K2SO4 solution by shaking for 2 h at room temperature. The filtrated extract was then analyzed for NH4^+ and NO3 colorimetrical by an autoanalyzer.
as §1

[3] = 0.015% DMPP, alone or + 0.45% DMPSA
[4] = 10 days of incubation at 15° C.
[5] = 20 days of incubation at 15° C.

## Cc1c[nH]nc1C.O=P(O)(O)O [DMPP, 3,4-dimethyl pyrazole phosphate and/or 4,5-dimethyl pyrazole phosphate]
Nitrification [1]; 0.005% DMPP, 0.45% DMPSA
  During incubation: % inhibition of NO3—N formation by NI acc. to Böhland equation (1973) (MV): −4.6%
  Net NI effect % NH4 from fertilized NH4 (MV): 6.22%
  Ratio NH4—N/NO3—N (MV): 0.10
  Soil mg/100 g NH4—N (MV): 0.65 mg/100 g
  Soil mg/100 g NO3—N (MV): 6.94 mg/100 g
Nitrification [1]; [3]
  During incubation: % inhibition of NO3—N formation by NI acc. to Böhland equation (1973) (MV): 15.7%
  Net NI effect % NH4 from fertilized NH4 (MV): 11.49%
  Ratio NH4—N/NO3—N (MV): 0.21
  Soil mg/100 g NH4—N (MV): 1.18 mg/100 g
  Soil mg/100 g NO3—N (MV): 5.59 mg/100 g
Nitrification [2]; [4]
  During incubation: % inhibition of NO3—N formation by NI acc. to Böhland equation (1973) (MV): 69.8%
  Net NI effect % NH4 from fertilized NH4 (MV): 41.02%
  Ratio NH4—N/NO3—N (MV): 2.86
  Soil mg/100 g NH4—N (MV): 6.58 mg/100 g
  Soil mg/100 g NO3—N (MV): 2.34 mg/100 g
Nitrification [2]; [5]
  During incubation: % inhibition of NO3—N formation by NI acc. to Böhland equation (1973) (MV): 14.9%
  Net NI effect % NH4 from fertilized NH4 (MV): 6.67%
  Ratio NH4—N/NO3—N (MV): 0.08
  Soil mg/100 g NH4—N (MV): 0.68 mg/100 g
  Soil mg/100 g NO3—N (MV): 8.60 mg/100 g
